According to US20130072440A1, “CO-CRYSTALS AND PHARMACEUTICAL FORMULATIONS COMPRISING THE SAME” (VERTEX PHARMACEUTICALS INCORPORATED, priority 2010, published 2013):
Values after ≈ are worked out from the molar mass of the structure shown.

Experiment: Kinetic solubility in Fed State Simulated Intestinal Fluid (FESSIF)
Format: physicochemical
Conditions: thermodynamic from solid
Procedure: Kinetic solubility profiles of VX-950 co-crystal fluid bed granules were determined in Fed State Simulated Intestinal Fluid (FESSIF).
[…] of VX-950 co-crystal fluid-bed granules were dissolved in 100 ml of FESSIF.
The experiment of Example was repeated with 166.51 mg of VX-950 co-crystal fluid-bed granules.
Kinetic solubility of the following substances or formulations were measured in FESSIF: […]

- solubility kinetic at 15 min: 5 µg/mL (≈ 7.35 µM)
- solubility kinetic at 30 min: 5 µg/mL (≈ 7.35 µM)
- solubility kinetic at 45 min: 5 µg/mL (≈ 7.35 µM)
- solubility kinetic at 60 min: 4.5 µg/mL (≈ 6.62 µM)
- solubility kinetic at 90 min: 4 µg/mL (≈ 5.88 µM)
- solubility kinetic at 180 min: 4 µg/mL (≈ 5.88 µM)
SMILES: CCC[C@H](NC(=O)[C@@H]1[C@H]2CCC[C@H]2CN1C(=O)[C@@H](NC(=O)[C@@H](NC(=O)c1cnccn1)C1CCCCC1)C(C)(C)C)C(=O)C(=O)NC1CC1 [Crystalline VX-950]
